# Measurements taken from patent US8420696B2, “Use of low-dose ladostigil for neuroprotection” (priority 2005, dated 2013).
# Values joined by “and” are separate entries in the source; they are usually repeats but may differ in a detail not shown here. Identical values can stand only once. “Also recorded” adds a separate entry of the source.
# Tests used:
# [1] = target: T1, butyrylcholinesterase (BuChE) (Rattus norvegicus, UniProt Q9JKC1); experiment: Example 2: BuChE activity in cortex and hippocampus after ladostigil treatment; type: in vivo, rats; settings: chronic 1 mg/kg
# T1 construct: from tissue; host or cells: cortex and hippocampus homogenates of dosed Sprague-Dawley rats
# Experimental: (§1) The effect of chronic ladostigil treatment on ChE activity in the cortex and hippocampus of rats was determined one week after icv STZ in 12 rats (3 treated with water and 9 with ladostigil). The effect of acute treatment with ladostigil 1 or 17 mg/kg was determined 2 hrs after drug administration. […] The brain was rapidly removed, washed with saline on ice and the cortex, hippocampus and striatum dissected out, quickly weighed and stored at −70° C. until assay. Total ChE activity in the cortex and hippocampus was measured as described in Wang et al., Gender differences in the effect of rivastigmine on brain cholinesterase activity and cognitive function in rats, Neuropharmacology (2000) 39:497-506, using the spectrophotometric method of Ellman et al., A new and rapid colorimetric determination of acetylcholinesterase activity, Biochem. Pharmacol. (1961) 7:88-95 with acetylthiocholine (Sigma Ltd) as a substrate using homogenate of 100 mg tissue in 1 ml phosphate buffer. To determine only butyrylcholinesterase (BuChE) activity the amounts of tissue/ml of buffer were increased 3-fold and butyrylthiocholine (Sigma Ltd) was used as a substrate. MAO A and B activity was measured in homogenates of striatum as described in Weinstock et al., Limited potentiation of blood pressure response to oral tyramine by brain-selective monoamine oxidase A-B inhibitor, TV-3326 in conscious rabbits, Neuropharmacology (2002) 43:999-1005.
# ChE = experiment: Example 2: total ChE activity in cortex, hippocampus and plasma after ladostigil treatment; type: in vivo, rats
# Experimental: as §1
# [2] = tested on: rats injected icv with STZ (spatial memory); experiment: Morris water maze spatial memory after icv STZ; type: in vivo, Sprague-Dawley rats; settings: icv STZ + chronic ladostigil 1 mg/kg vs icv STZ only
# Experimental: Male Sprague-Dawley rats (63) weighing 320-340 g, aged 4 months, were anesthetized by an intraperitoneal injection of Equithesin 0.3 ml/kg. STZ (0.5 mg) dissolved in 2 μl artificial cerebrospinal fluid (CSF) was injected into each lateral ventricle of 45 rats. The stereotaxic co-ordinates for icv injection were: 0.9 mm posterior, 1.8 mm lateral and 3.8 mm ventral from the bregma level. Control rats (18) received a bilateral injection of 2 μl artificial CSF. STZ-injected rats (25) were given ladostigil (1 mg/kg of the hemitartrate salt/day) orally in a volume of (1 ml/kg) from one week before, until 1 or 8 weeks after icv STZ. The remaining 20 rats received 1 ml/kg water. The rats were housed two per cage with free access to food and water until the behavioral, enzymatic and cytochemical measurements were completed. […]
# Group means of 3 measures in the object and place recognition tests, duration of exploration in first and second phases and discrimination index were submitted to one way ANOVA. Mean daily escape latencies for trial 1 and trial 2 in the MWM in each group were analyzed by repeated measures ANOVA for DAY and GROUP followed by Duncan's post hoc test where appropriate. Histological data were analyzed by univariate ANOVA followed by Duncan's post hoc test. […]
# [3] = tested on: aged rats (spatial learning); experiment: Example 3: spatial learning of aged rats in Morris water maze; type: in vivo, Wistar rats; settings: 1 mg/kg/day in drinking fluid for four months from age 16 months
# Experimental: Experiments were performed in 30 male rats of the Wistar strain. […] The rats were housed in pairs at an ambient temperature of 21° C. They were weighed once weekly and their fluid intake measured daily for two weeks and then twice weekly for the remaining 4 months. Ten of the rats were started on ladostigil 1 mg/kg/day in the drinking fluid when aged 16 months and given the drug for four months. The remaining 10 rats of the same age were given regular drinking water. At the end of the four months spatial memory of these 20 rats and of another 10 aged 3 months was tested in the Morris water maze as previously described (Shoham et al, 2006).
# MAO-B = target: T2, MAO-B (Rattus norvegicus, UniProt P19643); experiment: Example 2: MAO-B activity in homogenates of striatum; type: in vivo, rats; settings: chronic 1 mg/kg
# T2 construct: from tissue; host or cells: striatum homogenate of dosed Sprague-Dawley rats
# T2 sequence (P19643 1-520): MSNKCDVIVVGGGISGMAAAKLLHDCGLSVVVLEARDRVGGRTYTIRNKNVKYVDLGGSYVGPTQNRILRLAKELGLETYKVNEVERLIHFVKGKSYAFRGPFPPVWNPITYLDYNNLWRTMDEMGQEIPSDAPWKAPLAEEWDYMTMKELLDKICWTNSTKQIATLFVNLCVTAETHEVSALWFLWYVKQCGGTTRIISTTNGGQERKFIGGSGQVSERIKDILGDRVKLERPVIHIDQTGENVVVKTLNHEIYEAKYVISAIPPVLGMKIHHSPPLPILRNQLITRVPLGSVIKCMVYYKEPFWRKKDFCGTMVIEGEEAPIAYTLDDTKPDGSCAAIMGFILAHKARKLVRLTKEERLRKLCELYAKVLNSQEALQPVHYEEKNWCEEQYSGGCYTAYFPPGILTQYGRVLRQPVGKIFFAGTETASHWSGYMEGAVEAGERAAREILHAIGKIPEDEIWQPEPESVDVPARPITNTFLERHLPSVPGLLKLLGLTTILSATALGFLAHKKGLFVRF
# Experimental: as §1, with “To determine only butyrylcholinesterase (BuChE) activity the amounts of tissue/ml of buffer were increased 3-fold and butyrylthiocholine (Sigma Ltd) was used as a substrate.” left out
# cultured neuronal cells = settings: low concentrations; cited from earlier work
# T1 sequence (Q9JKC1 24-597): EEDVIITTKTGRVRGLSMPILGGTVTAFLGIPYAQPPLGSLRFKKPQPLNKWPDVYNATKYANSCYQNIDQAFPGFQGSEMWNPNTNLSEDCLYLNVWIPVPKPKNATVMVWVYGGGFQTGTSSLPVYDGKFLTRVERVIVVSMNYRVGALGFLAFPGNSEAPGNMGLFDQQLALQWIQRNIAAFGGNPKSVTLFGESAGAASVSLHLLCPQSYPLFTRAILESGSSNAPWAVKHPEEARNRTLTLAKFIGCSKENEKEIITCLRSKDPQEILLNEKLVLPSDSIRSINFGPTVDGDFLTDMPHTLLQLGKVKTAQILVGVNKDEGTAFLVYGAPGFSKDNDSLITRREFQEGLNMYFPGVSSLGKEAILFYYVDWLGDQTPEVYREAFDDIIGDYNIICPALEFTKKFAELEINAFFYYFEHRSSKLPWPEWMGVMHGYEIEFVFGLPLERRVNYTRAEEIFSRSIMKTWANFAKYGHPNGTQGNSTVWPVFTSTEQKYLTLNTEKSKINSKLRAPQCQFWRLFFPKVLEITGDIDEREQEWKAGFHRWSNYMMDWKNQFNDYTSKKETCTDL
compound,measurement,setting,value
"C#CCN[C@@H]1CCc2ccc(OC(=O)N(C)CC)cc21 [ladostigil, R(+)-6-(N-methyl,N-ethyl-carbamoyloxy)-N′-propargyl-1-aminoindan]",BuChE (%) inhibition,"[1]; Cortex, 60 min",16.2 ± 2.5 %
same,BuChE (%) inhibition,"[1]; Cortex, 120 min",15.7 ± 3.2 %
same,BuChE (%) inhibition,"[1]; Hippocampus, 60 min",7.3 ± 2.5%
same,BuChE (%) inhibition,"[1]; Hippocampus, 120 min",5.4 ± 2.8%
same,Inhibition of BuChE in the hippocampus,[1],no significant inhibition
same,Inhibition of BuChE in the cortex,"[1]; seven days after icv STZ, 1 or 2 hrs after the last dose",16%
same,ChE (%) inhibition,"ChE; Cortex, 60 min after last dose, chronic 1 mg/kg, seven days after icv STZ",16.1 ± 4.7 %
same,ChE (%) inhibition,"ChE; Cortex, 120 min after last dose, chronic 1 mg/kg, seven days after icv STZ",23.6 ± 3.1 %
same,ChE (%) inhibition,"ChE; Hippocampus, 60 min, chronic 1 mg/kg",4.9 ± 2.6%
same,ChE (%) inhibition,"ChE; Hippocampus, 120 min, chronic 1 mg/kg",5.9 ± 3.2%
same,ChE (%) inhibition,"ChE; Plasma, 120 min, chronic 1 mg/kg",20 ± 2%
same,ChE inhibition in the hippocampus or plasma,ChE; acute administration 1 mg/kg,not in the hippocampus or plasma
same,ChE inhibition in both brain regions and in plasma,"ChE; acute administration 17 mg/kg, 17 mg/kg",40-42% and 40%
same,Inhibition of ChE activity in the plasma,ChE; chronic 1 mg/kg,20%
same,Inhibition of ChE in the hippocampus,ChE; chronic 1 mg/kg,no ChE inhibition occurred; also recorded: no significant AChE inhibition occurred
same,Inhibition of total ChE activity in the cortex,"ChE; chronic 1 mg/kg, seven days after icv STZ, 1 or 2 hrs after the last dose",24% and 28% and ~20%
same,"Escape latency in Morris water maze, trial 1, means over 5 days",[2],rats given icv STZ only had significantly higher latencies than those injected with CSF or STZ and treated with ladostigil
same,Difference in spatial learning between young and old rats (Morris water maze),[3],substantially abolished
same,MAO-B (%) inhibition,MAO-B; 60 min,11.3 ± 1.4 %
same,MAO-B (%) inhibition,MAO-B; 120 min (2 hrs),15%
same,Cytotoxicity induced by ROS and NO in cultured neuronal cells,cultured neuronal cells,prevent cytotoxicity
